Laboratory results: US20120302609A1, “Pyrazolines for the Modulation of PKM2” (Dynamix Pharmaceuticals LTD., priority 2011, published 2012)

Tests used:
HT-29 xenograft = HT-29 xenograft mouse model, tumor efficacy; format: in vivo; settings: i.p.
Description: (§1) This example illustrates the efficacy and safety of a compound according to embodiments of the present invention, i.e., Compound 1A, using a HT-29 xenograft mouse model (a colorectal cancer model).
The HT-29 cells were maintained in vitro as a monolayer culture in McCoy's 5A medium supplemented with 10% heat inactivated fetal bovine serum, 100 U/ml penicillin and 100 μg/ml streptomycin at 37° C. in an atmosphere of 5% CO2 in air. The tumor cells were routinely subcultured twice weekly by trypsin-EDTA treatment. The cells growing in an exponential growth phase were harvested and counted for tumor inoculation.
65 mice were inoculated subcutaneously at the right flank with 3.0×10^6 HT-29 tumor cells in 0.1 ml of serum-free medium for tumor development. The treatments were started when the tumor size reached approximately 75 (50-100) mm^3. The test article administration and the animal numbers in each group are shown in the following experiment design Table 5.
The major endpoint was to see if the tumor growth can be delayed or mice can be cured. Tumor size was measured three times weekly in two dimensions using a caliper, and the volume was expressed in mm^3 using the formula: V=0.5 a×b^2 where a and b are the long and short diameters of the tumor, respectively. The tumor size was then used for calculations of both T-C and TGI values. T-C was calculated with T as the median time (in days) required for the treatment group tumors to reach a predetermined size (e.g., 1,000 mm^3), and C as the median time (in days) for the control group tumors to reach the same size. The TGI (in percent)=(T−C)/C*100% represents the tumor growth inhibition rate, T and C were the mean volume of the treated and control groups, respectively, on a given day. Tumor weight was measured at the study termination. The T/C value (in percent) was calculated where T and C are the mean tumor weights of the treated and control groups, respectively.

[1] = HT-29 xenograft mouse model, safety (body weight, observations); format: in vivo
Description: as §1
All the procedures related to animal handling, care, and the treatment in this study were performed according to approved guidelines a following the guidance of the Association for Assessment and Accreditation of Laboratory Animal Care (AAALAC). At the time of routine monitoring, the animals were checked for any effects of tumor growth and treatments on normal behavior such as mobility, food and water consumption (by looking only), body weight gain/loss (body weights were measured thrice weekly), eye/hair matting and any other abnormal effect. Death and observed clinical signs were recorded on the basis of the numbers of animals within each subset.
• a. Blood samples were collected after the 1st dose and the 23rd dose. Collected blood samples from 2 animals in each group at the designated timepoints post dose. The detailed timepoints are as below: • For the groups with QD dosing schedule: 1, 4, 8 and 24 hr post dose. • For the groups with Q2D dosing schedule: 1, 8, 24 and 48 hr post dose. • b. 20 μl blood was collected via tail vein in EDTA-2K tube (0.5 ml tube containing 0.4 μl 15% EDTA-2K. 60u1 double distilled water was added into the tube and mixed well.

BT-474 (Breast) = test: Cell proliferation assay (CellTiter-Glo Luminescent); format: cell-based; settings: Homo sapiens, Complete media, 96 hr
H-460 (lung) = test: Cell proliferation assay (XTT); format: cell-based; settings: Homo sapiens, NCI-H460, 72 h, Assay duration: 72 hours, Readout: XTT
Description: Day 0 Cells were seeded at 3000 cells/well in 100 μl full media in 96-well culture plates (60 wells/plate, external wells filled with 100 μl PBS) and incubated overnight. • Day 1 On the following day, full media was changed to the tested media and compounds were added in 0.5% DMSO final. • Day 2-5 Cells were incubated over 72 hr. • Day 5 Cell proliferation was assessed using XTT proliferation assay as follows:
(§2) The assay is based on the ability of metabolic active cells to reduce the tetrazolium salt XTT to orange colored compounds of formazan. The dye formed is water soluble and the dye intensity can be read at a given wavelength with a spectrophotometer. The intensity of the dye is proportional to the number of metabolic active cells. The use of multiwell plates and an ELISA reader enables testing a large number of samples and obtaining easy and rapid results. The test procedure includes cultivation of cells in a 96-well plate, adding the XTT reagent and incubation for 2-24 hours. During incubation an orange color is formed, the intensity of which can be measured with a spectrophotometer, in this instance with an ELISA reader. The greater the number of active cells in the well, the greater the activity of mitochondria enzymes, and the higher the concentration of the dye formed, which can then be measured and quantitated.
• 1. […] The absorbance of the samples was measured against a background control as a blank (see 7) with a spectrophotometer (ELISA reader) at a wavelength of 450-500 nanometer. In order to measure reference absorbance (to measure non-specific readings), a wavelength of 630-690 nanometer was used and subtracted from the 450-500 nanometer measurement. • 7. Background control (blank): Slight spontaneous absorbance around 450-500 nanometer occurs in the culture medium incubated with the XTT reagent. This background absorbance depends on the culture medium, pH, incubation time and length of exposure to light. […] The average absorbance of the blank control wells was subtracted from that of the other wells. […]

HCT-116 (colon) = test: Cell proliferation assay (CellTiter-Glo Luminescent); format: cell-based; settings: Homo sapiens, 1 mM glucose, 96 hr
HepG2 (liver) = test: Cell proliferation assay (XTT); format: cell-based; settings: Homo sapiens, Complete media, Assay duration: 72 hours, Readout: XTT
Text: as §2
• 1. […] The absorbance of the samples was measured against a background control as a blank (see 7) with a spectrophotometer (ELISA reader) at a wavelength of 450-500 nanometer. In order to measure reference absorbance (to measure non-specific readings), a wavelength of 630-690 nanometer was used and subtracted from the 450-500 nanometer measurement. • 7. […] This background absorbance depends on the culture medium, pH, incubation time and length of exposure to light. […]

CCS(=O)(=O)Nc1ccc(C2=NN(C(C)=O)C(c3ccc(OC)cc3)C2)cc1 (racemic) [Compound 1A, N-(4-(1-acetyl-5-(4-methoxyphenyl)-4,5-dihydro-1H-pyrazol-3-yl)phenyl)ethanesulfonamide]
anti-tumor activity (HT-29 xenograft; 100 mg/kg Q2D): statistically significantly anti-tumor activity
anti-tumor activity (HT-29 xenograft; 200 mg/kg QD): statistically significantly anti-tumor activity
TGI reached by day ten (HT-29 xenograft; 200 mg/kg QD): > 50%
Tumor Growth Inhibition (TGI) (HT-29 xenograft; 400 mg/kg QD, HT-29 xenograft, BALB/c nude mice): 42%
TGI reached by day ten (HT-29 xenograft; 400 mg/kg QD): > 50%
body weight loss ([1]; all the treatment groups (100-400 mg/kg i.p.)): No significant body weight loss
in vivo safety profile ([1]; highest dosage level 400 mg/kg QD): good in vivo safety profile

COc1ccc([C@@H]2CC(c3ccc(NS(=O)(=O)c4ccc(F)cc4)cc3)=NN2C(C)=O)cc1 [Compound 13A, (S)—N-(4-(1-acetyl-5-(4-methoxyphenyl)-4,5-dihydro-1H-pyrazol-3-yl)phenyl)-4-fluorobenzenesulfonamide]
AC50 (BT-474 (Breast)): 10 to 20 µM
AC50 (H-460 (lung); 1 mM glucose): 10 to 20 µM
AC50 (H-460 (lung); Complete media): > 20 µM
AC50 (H-460 (lung); Lipoprotein-free media): < 3 µM
AC50 (HCT-116 (colon)): 10 to 20 µM
AC50 (HepG2 (liver)): > 20 µM
